Results taken from PubChem BioAssay AID282 (DTP/NCI, 2004).
Values joined by “and” are separate entries in the source; they are usually repeats but may differ in a detail not shown here. Equal entries are not always repeated. Inconclusive results and toxic doses are left out.

Test system: BDF1 mice, L1210 terephthalanilide-resistant leukemia ip, survival T/C
Assay: NCI In Vivo Anticancer Drug Screen. Data for tumor model L1210 Leukemia resistant to A Terephthalanilide; NSC 38280 (intraperitoneal) in B6D2F1 (BDF1) mice
Settings: endpoint: mean survival time, higher = longer survival
Experimental: The antitumor activity of compounds was measured in mice bearing transplantable tumors. Survival or tumor size were measured and the results are expressed as the measurement made in the treated group (T) divided by the measurement made in the vehicle treated control group (C). The tumor model used in this assay is L1210 Leukemia resistant to A Terephthalanilide; NSC 38280 (intraperitoneal) in B6D2F1 (BDF1) mice

[1] = dose: 12.5 mg/kg/injection, schedule: Q01DX010 (ip), vehicle: saline
[2] = dose: 25.0 mg/kg/injection, schedule: Q01DX010 (ip), vehicle: saline
[3] = dose: 8.0 mg/kg/injection, schedule: Q01DX010 (ip), vehicle: saline
[4] = dose: 12.0 mg/kg/injection, schedule: Q01DX010 (ip), vehicle: saline
[5] = dose: 18.0 mg/kg/injection, schedule: Q01DX010 (ip), vehicle: saline
[6] = dose: 37.5 mg/kg/injection, schedule: Q01DX Z (ip), vehicle: carboxymethylcellulose (CMC)
[7] = dose: 50.0 mg/kg/injection, schedule: Q01DX Z (ip), vehicle: carboxymethylcellulose (CMC)
[8] = dose: 50.0 mg/kg/injection, schedule: Q01DX010 (ip), vehicle: saline
[9] = dose: 100.0 mg/kg/injection, schedule: Q01DX010 (ip), vehicle: saline
[10] = dose: 25.0 mg/kg/injection, schedule: Q01DX Z (ip), vehicle: carboxymethylcellulose (CMC)

Question: How did the T/C (dose: 3.13 mg/kg/injection, schedule: Q01DX010 (ip), vehicle: saline) turn out when `CCCNc1ncnc2[nH]ncc12` was run?
Answer: 92 % of control and 103 % of control

Question: And the T/C (dose: 6.25 mg/kg/injection, schedule: Q01DX010 (ip), vehicle: saline)?
Answer: 96 % of control and 108 % of control

Question: And the T/C [1]?
Answer: 95 % of control and 101 % of control

Question: What about the T/C (dose: 12.5 mg/kg/injection, schedule: Q01DX Z (ip), vehicle: saline) of the same compound?
Answer: 115 % of control

Question: And the T/C [2]?
Answer: 92 % of control and 106 % of control

Question: What about the T/C (dose: 50.0 mg/kg/injection, schedule: Q01DX Z (ip), vehicle: saline) of the same compound?
Answer: 93 % of control

Question: `C[C@H](N)C(=O)N[C@@H]1[C@H]2C(=C(O)C[C@@H](O)[C@@H]2O)C(=O)O[C@@H]1C` was tested. Which T/C (dose: 375.0 mg/kg/injection, schedule: Q01DX Z (ip), vehicle: saline) did it give?
Answer: 156 % of control

Question: And the T/C (dose: 500.0 mg/kg/injection, schedule: Q01DX Z (ip), vehicle: saline)?
Answer: 170 % of control

Question: And the T/C (dose: 750.0 mg/kg/injection, schedule: Q01DX Z (ip), vehicle: saline)?
Answer: 202 % of control

Question: With `OCC1OC(n2cnc3c(=S)nc[nH]c32)C(O)C1O` (stereo not drawn) as the compound, how does the T/C (dose: 20.0 mg/kg/injection, schedule: Q01DX010 (ip), vehicle: saline) read?
Answer: 111 % of control

Question: And the T/C (dose: 40.0 mg/kg/injection, schedule: Q01DX010 (ip), vehicle: saline)?
Answer: 119 % of control

Question: What about the T/C (dose: 160.0 mg/kg/injection, schedule: Q01DX010 (ip), vehicle: saline) of the same compound?
Answer: 162 % of control

Question: How did the T/C (dose: 5.0 mg/kg/injection, schedule: Q01DX010 (ip), vehicle: saline) turn out when `CN(C)c1ccc(/C=C\c2ccnc3ccccc23)cc1` was run?
Answer: 98 % of control

Question: What about the T/C [3] of the same compound?
Answer: 100 % of control

Question: And the T/C [4]?
Answer: 100 % of control

Question: What about the T/C [5] of the same compound?
Answer: 92 % of control and 95 % of control

Question: And the T/C (dose: 18.75 mg/kg/injection, schedule: Q01DX Z (ip), vehicle: carboxymethylcellulose (CMC))?
Answer: 101 % of control

Question: And the T/C (dose: 27.0 mg/kg/injection, schedule: Q01DX010 (ip), vehicle: saline)?
Answer: 89 % of control

Question: And the T/C [6]?
Answer: 95 % of control

Question: And the T/C [7]?
Answer: 90 % of control

Question: For `CS(=O)(=O)OCCC(=O)N1CCN(C(=O)CCOS(C)(=O)=O)CC1`, which T/C [1] is on record?
Answer: 106 % of control and 109 % of control

Question: And the T/C [2]?
Answer: 120 % of control

Question: What about the T/C [8] of the same compound?
Answer: 107 % of control

Question: And the T/C [9]?
Answer: 120 % of control

Question: With `COc1cc(-c2ccc(Nc3ccccc3C(=O)O)c(OC)c2)ccc1Nc1ccccc1C(=O)O` as the compound, how does the T/C (dose: 67.0 mg/kg/injection, schedule: Q01DX010 (ip), vehicle: saline) read?
Answer: 150 % of control and 159 % of control

Question: How did the T/C (dose: 18.8 mg/kg/injection, schedule: Q01DX010 (ip), vehicle: saline) turn out when `CS(=O)(=O)OCCCl` was run?
Answer: 99 % of control and 108 % of control

Question: What about the T/C (dose: 37.5 mg/kg/injection, schedule: Q01DX010 (ip), vehicle: saline) of the same compound?
Answer: 90 % of control and 103 % of control

Question: What about the T/C (dose: 44.0 mg/kg/injection, schedule: Q01DX Z (ip), vehicle: saline) of the same compound?
Answer: 103 % of control

Question: What about the T/C (dose: 75.0 mg/kg/injection, schedule: Q01DX010 (ip), vehicle: saline) of the same compound?
Answer: 107 % of control and 108 % of control

Question: And the T/C (dose: 87.5 mg/kg/injection, schedule: Q01DX Z (ip), vehicle: saline)?
Answer: 115 % of control

Question: And the T/C (dose: 150.0 mg/kg/injection, schedule: Q01DX010 (ip), vehicle: saline)?
Answer: 89 % of control

Question: And the T/C (dose: 175.0 mg/kg/injection, schedule: Q01DX Z (ip), vehicle: saline)?
Answer: 119 % of control

Question: `c1ccc(CNc2ncnc3[nH]ncc23)cc1` was tested. Which T/C [3] did it give?
Answer: 102 % of control and 107 % of control

Question: What about the T/C (dose: 12.5 mg/kg/injection, schedule: Q01DX Z (ip), vehicle: carboxymethylcellulose (CMC)) of the same compound?
Answer: 97 % of control

Question: And the T/C (dose: 16.0 mg/kg/injection, schedule: Q01DX010 (ip), vehicle: saline)?
Answer: 103 % of control and 114 % of control

Question: What about the T/C [10] of the same compound?
Answer: 109 % of control

Question: And the T/C (dose: 32.0 mg/kg/injection, schedule: Q01DX010 (ip), vehicle: saline)?
Answer: 107 % of control

Question: And the T/C [6]?
Answer: 116 % of control

Question: And the T/C [7]?
Answer: 97 % of control

Question: And the T/C (dose: 64.0 mg/kg/injection, schedule: Q01DX010 (ip), vehicle: saline)?
Answer: 99 % of control and 103 % of control

Question: `CCN(CC)c1ccc2cc3ccc(=[N+](CC)CC)cc-3oc2c1` was tested. Which T/C (dose: 1.0 mg/kg/injection, schedule: Q01DX010 (ip), vehicle: saline) did it give?
Answer: 98 % of control

Question: What about the T/C (dose: 2.0 mg/kg/injection, schedule: Q01DX010 (ip), vehicle: saline) of the same compound?
Answer: 91 % of control

Question: What about the T/C (dose: 4.0 mg/kg/injection, schedule: Q01DX010 (ip), vehicle: saline) of the same compound?
Answer: 96 % of control

Question: Which results are given for `CN(C)C(=S)N=Nc1c(O)[nH]c2ccccc12`?
Answer: T/C [10]: 90 % of control; T/C [7]: 98 % of control; T/C (dose: 100.0 mg/kg/injection, schedule: Q01DX Z (ip), vehicle: carboxymethylcellulose (CMC)): 89 % of control

Question: With `O=C(Nc1ccc(C2=NCCN2)cc1)c1ccc(C(=O)Nc2ccc(C3=NCCN3)cc2)c([N+](=O)[O-])c1` as the compound, how does the T/C (dose: 6.0 mg/kg/injection, schedule: Q01DX010 (ip), vehicle: saline) read?
Answer: 102 % of control and 108 % of control

Question: What about the T/C [3] of the same compound?
Answer: 100 % of control and 113 % of control

Question: And the T/C [4]?
Answer: 112 % of control and 119 % of control

Question: And the T/C [5]?
Answer: 89 % of control and 95 % of control

Question: For `CCN(CC)CCNc1ccc(C)c2sc3ccccc3c(=O)c12`, which T/C [2] is on record?
Answer: 101 % of control and 105 % of control

Question: What about the T/C (dose: 25.0 mg/kg/injection, schedule: Q01DX Z (ip), vehicle: water) of the same compound?
Answer: 111 % of control

Question: What about the T/C [8] of the same compound?
Answer: 105 % of control and 111 % of control

Question: And the T/C [9]?
Answer: 111 % of control

Question: What about the T/C (dose: 100.0 mg/kg/injection, schedule: Q01DX Z (ip), vehicle: water) of the same compound?
Answer: 115 % of control

Question: How did the T/C [8] turn out when `C#CCN(C)Cc1ccccc1` was run?
Answer: 91 % of control

Question: What about the T/C [9] of the same compound?
Answer: 102 % of control

Question: And the T/C (dose: 200.0 mg/kg/injection, schedule: Q01DX010 (ip), vehicle: saline)?
Answer: 93 % of control

Question: What does the source list for `O=c1c(O)cccc2cc(O)c(O)c(O)c12`?
Answer: T/C [2]: 98 % of control; T/C [8]: 93 % of control; T/C [9]: 89 % of control

Question: What does the source list for `Clc1ncnc2nc[nH]c12`?
Answer: T/C (dose: 7.5 mg/kg/injection, schedule: Q01DX010 (ip), vehicle: saline): 94 % of control and 102 % of control; T/C (dose: 15.0 mg/kg/injection, schedule: Q01DX010 (ip), vehicle: saline): 96 % of control and 105 % of control; T/C (dose: 30.0 mg/kg/injection, schedule: Q01DX010 (ip), vehicle: saline): 120 % of control and 105 % of control; T/C [6]: 115 % of control; T/C (dose: 60.0 mg/kg/injection, schedule: Q01DX010 (ip), vehicle: saline): 123 % of control and 110 % of control; T/C (dose: 75.0 mg/kg/injection, schedule: Q01DX Z (ip), vehicle: carboxymethylcellulose (CMC)): 114 % of control; T/C (dose: 150.0 mg/kg/injection, schedule: Q01DX Z (ip), vehicle: carboxymethylcellulose (CMC)): 150 % of control
